Test [1] has as its target human RORγt ligand binding domain (RORγt LBD) (Homo sapiens (Human), UniProt P51449). The test is described as follows: RORγt ThermoFluor® assay (thermal shift binding). From the text: ThermoFluor® is a fluorescence based assay that estimates ligand binding affinities by measuring the effect of a ligand on protein thermal stability (Pantoliano, M. W., Petrella, E. C., Kwasnoski, J. D., Lobanov, V. S., Myslik, J., Graf, E., Carver, T., Asel, E., Springer, B. A., Lane, P., and Salemme, F. R. (2001) High-density miniaturized thermal shift assays as a general strategy for drug discovery. J Biomol Screen 6, 429-40, and Matulis, D., Kranz, J. K., Salemme, F. R., and Todd, M. J. (2005) Thermodynamic stability of carbonic anhydrase: measurements of binding affinity and stoichiometry using ThermoFluor. Biochemistry 44, 5258-66). This approach is applicable to a wide variety of systems, and rigorous in theoretical interpretation through quantitation of equilibrium binding constants (KD).
The shift in the melting point described as a ΔTm is proportional to the concentration and affinity of the ligand. The compound potency may be compared as a rank order of either ΔTm values at a single compound concentration or in terms of KD values, estimated from concentration response curves.
RORγt ThermoFluor® Assay Construct
For the RORγt construct used in the ThermoFluor® assay, numbering for the nucleotide sequences was based on the reference sequence for human RORγt, transcript variant 2, NCBI Accession: NM_001001523.1 (SEQ ID NO:1). Nucleotides 850-1635 (SEQ ID NO:2) coding for the wild type human RORγt ligand binding domain (RORγt LBD) were cloned into the pHIS1 vector, a modified pET E. coli expression vector (Accelagen, San Diego), containing an in-frame N-terminal His-tag and a TurboTEV protease cleavage site (ENLYFQG, SEQ ID NO:3) upstream of the cloned insert sequence. The amino acid sequence for the RORγt construct used in the Thermofluor® assay is shown as SEQ ID NO:4.
ThermoFluor® experiments were carried out using instruments owned by Janssen Research and Discovery, L.L.C. through its acquisition of 3-Dimensional Pharmaceuticals, Inc. 1,8-ANS (Invitrogen) was used as a fluorescent dye. Protein and compound solutions are dispensed into black 384-well polypropylene PCR microplates (Abgene) and overlayed with silicone oil (1 μL, Fluka, type DC 200) to prevent evaporation.
Bar-coded assay plates are robotically loaded onto a thermostatically controlled PCR-type thermal block and then heated at a typical ramp-rate of 1° C./min for all experiments. Fluorescence was measured by continuous illumination with UV light (Hamamatsu LC6) supplied via fiber optic and filtered through a band-pass filter (380-400 nm; >6 OD cutoff). Fluorescence emission of the entire 384-well plate was detected by measuring light intensity using a CCD camera (Sensys, Roper Scientific) filtered to detect 500±25 nm, resulting in simultaneous and independent readings of all 384 wells. Images were collected at each temperature, and the sum of the pixel intensity in a given area of the assay plate was recorded versus temperature. Reference wells contained RORγt without compounds, and the assay conditions were as follows: • 0.065 mg/mL RORγt • 60 μM 1,8-ANS • 100 mM Hepes, pH 7.0 • 10 mM NaCl • 2.5 mM GSH • 0.002% Tween-20
Project compounds were arranged in a pre-dosed mother plate (Greiner Bio-one) wherein compounds are serially diluted in 100% DMSO by 1:2 from a high concentration of 10 mM over 12 columns within a series (column 12 is a reference well containing DMSO, no compound). The compounds were robotically dispensed directly into assay plates (×=46 nL) using a Hummingbird capillary liquid handling instrument (Digilab). Following compound dispense, protein and dye in buffer was added to achieve the final assay volume of 3 μL, followed by 1 μL of silicone oil.

For a further test, the target named is full-length human RORγt (Homo sapiens (Human), UniProt P51449). The test is described as follows: RORγt (full-length human) reporter assay, Conditions B or C. It counts as cell-based. To be noted: for RORγt (FL) Reporter Assay B or C, % inhibition (value marked *): marked *: footnote not given; for inhibition at 3 µM: at 3 μM compound concentration, read-out: RORγt (FL) Reporter Assay B or C, % inhibition. The text has this:
RORγt (Full-Length Human) Reporter Assay:
Cells used in this assay were transiently co-transfected with three different plasmids, one expressing the GAL4-DNA binding domain (DBD)-RORγt fusion protein under control of a CMV promoter (NH2-Gal4-DBD:RORC-COOH in pCMV-BD, Stratagene #211342), and two reporter plasmids—the firefly luciferase reporter under control of a GAL4 promoter (pFR-Luc 2×GAL4) and Renilla luciferase reporter under control of CMV promoter (pRL-CMV, Promega # E2261). The full-length coding sequence was used for human RORγt, i.e., nucleotides 142-1635 of human RORγt, transcript variant 2, NCBI Accession: NM_001001523.1 (SEQ ID NO:1). HEK293T cells were plated at 35,000 per well in 96-well plate in medium of DMEM with 10% FBS. After 18-22 hours incubation, the transfection was carried out by using a PEI solution with 170.5 ng total DNA/well (50 ng pCMV-BD-ROR plus 20 ng of pFR-Luc reporter and 0.5 ng of pRL-CMV reporter plus 100 ng Carrier DNA (Clontech #630440) for each well). 4-6 hours after transfection, cells were treated with compounds for overnight in the medium with final concentration of FBS 1.3% and DMSO 0.1%. After overnight (16 to 20 hours) incubation, media were removed and cells were lysed with 50 μL Glo Lysis Buffer (Promega) for 10-15 minutes followed by 10 minute incubation with 50 μL Dual Glo reagent (Promega) at room temperature. Firefly luciferase luminescence was measured using a BMG Pherastar plate reader. To each well, 50 μL Stop and Glo reagent was added and incubated for 10 minutes at room temperature. Renilla luminescence was measured using a BMG Pherastar plate reader. To calculate the effect of compounds on RORγt activity, firefly values were normalized against values of DMSO only and values of reference compound at saturating concentration, then further normalized against Renilla signals. IC50s were generated by plotting final Renilla normalized data against compound concentration and percent inhibition was calculated against DMSO control.
Cells used in this assay were transiently co-transfected with three different plasmids, one expressing the GAL4-DNA binding domain (DBD)-RORγt fusion protein under control of a CMV promoter (NH2-Gal4-DBD:RORC-COOH in pCMV-BD, Stratagene #211342), and two reporter plasmids—the firefly luciferase reporter under control of a GAL4 promoter (pFR-Luc 2×GAL4) and Renilla luciferase reporter under control of CMV promoter (pRL-CMV, Promega # E2261). The full-length coding sequence was used for human RORγt, i.e., nucleotides 142-1635 of human RORγt, transcript variant 2, NCBI Accession: NM_001001523.1 (SEQ ID NO:1). HEK293T cells were plated at 8750 cells per well in 384-well plate in medium of DMEM with 10% FBS. After 18-22 hours incubation, the transfection was carried out by using a PEI solution with 42.6 ng total DNA/well (12.5 ng pCMV-BD-ROR plus 5 ng of pFR-Luc reporter and 0.125 ng of pRL-CMV reporter plus 25 ng Carrier DNA (Clontech #630440) for each well). 4-6 hours after transfection, cells were treated with compounds for overnight in the medium with final concentration of FBS 1.3% and DMSO 0.1%. After overnight (16 to 20 hours) incubation, media were removed and cells were lysed with 20 μL Glo Lysis Buffer (Promega) for 10-15 minutes followed by 10 minute incubation with 20 μL Dual Glo reagent (Promega) at room temperature. Firefly luciferase luminescence was measured using a BMG Pherastar plate reader. To each well, 20 μL Stop and Glo reagent was added and incubated for 10 minutes at room temperature. Renilla luminescence was measured using a BMG Pherastar plate reader. To calculate the effect of compounds on RORγt activity, firefly values were normalized against values of DMSO only and values of reference compound at saturating concentration, then further normalized against Renilla signals.
On the technique in general: A reporter such as luciferase makes a cellular process visible.

Setting [2] is: read-out: ThermoFluor® Assay, Kd.
[3] abbreviates: Conditions B or C, read-out: RORγt (FL) Reporter Assay B or C, IC50.
[4] abbreviates: read-out: RORγt (FL) Reporter Assay B or C, IC50.

Like-named read-outs stand apart in the source and are kept apart here.

human RORγt ligand binding domain (RORγt LBD), sequence (P51449 other isoform, or with tags, fused parts or gaps): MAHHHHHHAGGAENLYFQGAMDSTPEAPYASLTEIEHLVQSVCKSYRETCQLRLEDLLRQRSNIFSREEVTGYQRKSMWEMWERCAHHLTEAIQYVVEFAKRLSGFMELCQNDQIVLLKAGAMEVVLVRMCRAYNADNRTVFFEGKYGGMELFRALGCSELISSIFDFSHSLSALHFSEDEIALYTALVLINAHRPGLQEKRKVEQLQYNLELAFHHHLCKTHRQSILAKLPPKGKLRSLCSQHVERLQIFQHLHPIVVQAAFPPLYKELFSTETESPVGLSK
full-length human RORγt, sequence (P51449 other isoform, or with tags, fused parts or gaps): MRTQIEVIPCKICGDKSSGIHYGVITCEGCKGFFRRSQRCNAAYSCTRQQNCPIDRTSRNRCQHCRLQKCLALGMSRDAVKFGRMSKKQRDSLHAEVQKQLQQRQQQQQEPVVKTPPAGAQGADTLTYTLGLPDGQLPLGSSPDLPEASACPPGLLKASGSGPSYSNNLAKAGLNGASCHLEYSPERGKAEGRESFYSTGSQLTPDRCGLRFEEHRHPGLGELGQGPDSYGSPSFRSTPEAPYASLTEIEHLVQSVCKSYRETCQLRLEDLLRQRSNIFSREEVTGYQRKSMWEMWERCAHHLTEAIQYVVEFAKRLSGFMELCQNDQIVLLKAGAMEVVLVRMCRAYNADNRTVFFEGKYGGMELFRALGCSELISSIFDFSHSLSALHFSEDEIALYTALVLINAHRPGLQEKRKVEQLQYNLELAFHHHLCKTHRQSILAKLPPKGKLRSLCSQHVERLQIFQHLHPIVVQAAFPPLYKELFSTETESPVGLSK

On to `CC(C)(O)CNC(=O)c1nc(C(=O)N2C3CCC2CC3)c(-c2cnc(NC3(C(F)(F)F)CCC3)cc2C(F)(F)F)s1` [Example 99, 4-((1s,4s)-7-Azabicyclo[2.2.1]heptane-7-carbonyl)-N-(2-hydroxy-2-methylpropyl)-5-(4-(trifluoromethyl)-6-((1-(trifluoromethyl)cyclobutyl)amino)pyridin-3-yl)thiazole-2-carboxamide], for which the Kd in test [1] (setting [2]) came to 0.00058 µM. Further, the “RORγt (FL) Reporter Assay B or C, % inhibition (value marked *)” value (shortened to “RORγt … % inhibition (value marked *)”) on full-length human RORγt (Conditions B or C) is reported as 108* %. In addition, the IC50 on full-length human RORγt (setting [3]) was 0.011 µM.

Regarding `C[C@H]1CCCN1C(=O)c1nc(C(=O)NCC(C)(C)O)sc1-c1cnc(N[C@@H]2CCCC2(F)F)cc1C(F)(F)F` (single isomer, unassigned) [Example 280, 5-(6-(((R*)-2,2-Difluorocyclopentyl)amino)-4-(trifluoromethyl)pyridin-3-yl)-N-(2-hydroxy-2-methylpropyl)-4-((S)-2-methylpyrrolidine-1-carbonyl)thiazole-2-carboxamide], the Kd in test [1] (setting [2]) came out at 0.0049 µM. Further, the inhibition at 3 µM on full-length human RORγt turned out to be 110%. Further, the IC50 on full-length human RORγt (setting [4]) amounted to 0.016 µM.

For `CC[C@H](Nc1cc(C(F)F)c(-c2sc(C(=O)N[C@@H](C)[C@H](C)O)nc2C(=O)N2CCC[C@@H]2C)cn1)C(F)(F)F` (relative stereo) [Example 217, 5-(4-(Difluoromethyl)-6-(((S)-1,1,1-trifluorobutan-2-yl)amino)pyridin-3-yl)-N-((2S*,3S*)-3-hydroxybutan-2-yl)-4-((S)-2-methylpyrrolidine-1-carbonyl)thiazole-2-carboxamide], the Kd in test [1] (setting [2]) amounted to 0.0032 µM. The “RORγt … % inhibition (value marked *)” value at full-length human RORγt (Conditions B or C) is recorded as 109* %. Further, the IC50 on full-length human RORγt (setting [3]) is 0.019 µM.

For `C[C@H]1CCCN1C(=O)c1nc(C(=O)N2CC(C)(O)C2)sc1-c1cnc(NC(C)(C)C)cc1C(F)(F)F` [Example 268, [5-[6-(tert-Butylamino)-4-(trifluoromethyl)-3-pyridyl]-2-(3-hydroxy-3-methyl-azetidine-1-carbonyl)thiazol-4-yl]-[(2S)-2-methylpyrrolidin-1-yl]methanone], the Kd in test [1] (setting [2]) worked out at 0.0024 µM. For the same compound, at full-length human RORγt, the inhibition at 3 µM stood at 109%. At full-length human RORγt (setting [4]), the IC50 turned out to be 0.11 µM.

Take `C[C@H]1CCCN1C(=O)c1nc(C(=O)N[C@@H]2CCC[C@H]2O)sc1-c1cnc(NC(C)(C)C)cc1C(F)F` [Example 397, 5-[6-(tert-Butylamino)-4-(difluoromethyl)-3-pyridyl]-N-[(1R,2R)-2-hydroxycyclopentyl]-4-[(2S)-2-methylpyrrolidine-1-carbonyl]thiazole-2-carboxamide]: the Kd in test [1] (setting [2]) amounted to 0.0012 µM. For the same compound, at full-length human RORγt, the inhibition at 3 µM was determined as 118%. Besides, the IC50 at full-length human RORγt (setting [4]) is 0.009 µM.

Take `C[C@H]1CC(F)(F)CN1C(=O)c1nc(C(=O)NC2CCS(=O)(=O)CC2)sc1-c1cnc(NC2(C)CCC2)cc1C(F)F` [Example 328, (S)-4-(4,4-Difluoro-2-methylpyrrolidine-1-carbonyl)-5-(4-(difluoromethyl)-6-((1-methylcyclobutyl)amino)pyridin-3-yl)-N-(1,1-dioxidotetrahydro-2H-thiopyran-4-yl)thiazole-2-carboxamide]: the Kd in test [1] (setting [2]) was 0.00031 µM. The inhibition at 3 µM at full-length human RORγt came to 87%. Also, the IC50 at full-length human RORγt (setting [4]) came to 0.051 µM.

With `CC[C@H](Nc1cc(C(F)(F)F)c(-c2sc(C(=O)NCC(C)(C)O)nc2C(=O)N2C3CCC2CC3)cn1)C1CC1` (stereo in doubt) [Example 130], the Kd in test [1] (ThermoFluor® Assay, Kd (μM)) was 0.0016 µM. In addition, the “RORγt (FL) Reporter Assay B or C, % inhibition (value marked ***)” value at full-length human RORγt (Conditions B or C, marked ***: footnote not given) is 98*** %. In addition, the IC50 on full-length human RORγt (RORγt (FL) Reporter Assay B or C, IC50 (μM), Conditions B or C) came to 0.03 µM.

Take `CC[C@H](Nc1cc(C(F)F)c(-c2sc(C(=O)N3CC4CC(C3)O4)nc2C(=O)N2CCC[C@@H]2C)cn1)C(F)(F)F` [Example 392, [5-[4-(Difluoromethyl)-6-[[(1S)-1-(trifluoromethyl)propyl]amino]-3-pyridyl]-2-(6-oxa-3-azabicyclo[3.1.1]heptane-3-carbonyl)thiazol-4-yl]-[(2S)-2-methylpyrrolidin-1-yl]methanone]: the Kd in test [1] (setting [2]) was 0.044 µM. Besides, the inhibition at 3 µM on full-length human RORγt is 102%. At full-length human RORγt (setting [4]), the IC50 came out at 0.13 µM.

On to `C[C@H]1CCCN1C(=O)c1nc(C(=O)NCC2(O)CCC2)sc1-c1cnc(NC(C)(C)C)cc1C(F)F` [Example 133, (S)-5-(6-(tert-Butylamino)-4-(difluoromethyl)pyridin-3-yl)-N-((1-hydroxycyclobutyl)methyl)-4-(2-methylpyrrolidine-1-carbonyl)thiazole-2-carboxamide], for which the Kd in test [1] (setting [2]) came to 0.0045 µM. The “RORγt … % inhibition (value marked *)” value on full-length human RORγt (Conditions B or C) was 105* %. The IC50 on full-length human RORγt (setting [3]) came out at 0.028 µM.

As usually defined, the Kd is a measure of binding affinity in units of concentration. A word on the IC50: it is the concentration needed to halve the response being measured. The inhibition is the drop in the measured response relative to a control, in per cent.

Source of the values: patent US10975068B2, “6-aminopyridin-3-yl thiazoles as modulators of RORγT” (Janssen Pharmaceutica NV, priority 2016, dated 2021).
